{"source": "ChEMBL document CHEMBL1137781", "about": "“Synthesis and preclinical evaluation of novel PET probes for P-glycoprotein function and expression” (J Med Chem, 2009)", "key": {"[1]": {"test_system": "NCI/ADR-RES", "experiment": "Inhibition of Pgp in human MCF7/ADR cells assessed as potentiation of doxorubicin-induced cytotoxicity at 20 uM relative to untreated control", "type": "cell-based", "design": "Activity: scale not given: the % may be the effect or the level left"}, "[2]": {"test_system": "NCI/ADR-RES", "experiment": "Inhibition of Pgp in human MCF7/ADR cells assessed as increase in doxorubicin accumulation at 20 uM relative to untreated control", "type": "cell-based"}, "[3]": {"test_system": "Caco-2", "experiment": "Ratio of permeability from basolateral to apical side over apical to basolateral side in human Caco-2 cells", "type": "ADME, cell-based"}}, "data": [{"smiles": "COc1cc2c(cc1OC)CN(CCCC1CCCc3c(OC)cccc31)CC2", "note": "(stereo not drawn)", "values": [{"measurement": "Activity", "setting": "[1]", "value": 85, "unit": "%"}, {"measurement": "fold change (FC)", "setting": "[2]", "value": 4.8}, {"measurement": "Ratio", "setting": "[3]", "value": 18}]}]}
